Measured values published in patent publication US9708331B2, “Metabotrophic glutamate receptor 5 modulators and methods of use thereof” (SUNOVION PHARMACEUTICALS INC., priority 2011, dated 2017).

These compounds were tested against mGluR5 (Homo sapiens, UniProt P41594) (assay: mGluR5 PAM EC50 (positive allosteric modulator potency)).
Assay type: cell-based

Sequence of mGluR5 (P41594 21-1212): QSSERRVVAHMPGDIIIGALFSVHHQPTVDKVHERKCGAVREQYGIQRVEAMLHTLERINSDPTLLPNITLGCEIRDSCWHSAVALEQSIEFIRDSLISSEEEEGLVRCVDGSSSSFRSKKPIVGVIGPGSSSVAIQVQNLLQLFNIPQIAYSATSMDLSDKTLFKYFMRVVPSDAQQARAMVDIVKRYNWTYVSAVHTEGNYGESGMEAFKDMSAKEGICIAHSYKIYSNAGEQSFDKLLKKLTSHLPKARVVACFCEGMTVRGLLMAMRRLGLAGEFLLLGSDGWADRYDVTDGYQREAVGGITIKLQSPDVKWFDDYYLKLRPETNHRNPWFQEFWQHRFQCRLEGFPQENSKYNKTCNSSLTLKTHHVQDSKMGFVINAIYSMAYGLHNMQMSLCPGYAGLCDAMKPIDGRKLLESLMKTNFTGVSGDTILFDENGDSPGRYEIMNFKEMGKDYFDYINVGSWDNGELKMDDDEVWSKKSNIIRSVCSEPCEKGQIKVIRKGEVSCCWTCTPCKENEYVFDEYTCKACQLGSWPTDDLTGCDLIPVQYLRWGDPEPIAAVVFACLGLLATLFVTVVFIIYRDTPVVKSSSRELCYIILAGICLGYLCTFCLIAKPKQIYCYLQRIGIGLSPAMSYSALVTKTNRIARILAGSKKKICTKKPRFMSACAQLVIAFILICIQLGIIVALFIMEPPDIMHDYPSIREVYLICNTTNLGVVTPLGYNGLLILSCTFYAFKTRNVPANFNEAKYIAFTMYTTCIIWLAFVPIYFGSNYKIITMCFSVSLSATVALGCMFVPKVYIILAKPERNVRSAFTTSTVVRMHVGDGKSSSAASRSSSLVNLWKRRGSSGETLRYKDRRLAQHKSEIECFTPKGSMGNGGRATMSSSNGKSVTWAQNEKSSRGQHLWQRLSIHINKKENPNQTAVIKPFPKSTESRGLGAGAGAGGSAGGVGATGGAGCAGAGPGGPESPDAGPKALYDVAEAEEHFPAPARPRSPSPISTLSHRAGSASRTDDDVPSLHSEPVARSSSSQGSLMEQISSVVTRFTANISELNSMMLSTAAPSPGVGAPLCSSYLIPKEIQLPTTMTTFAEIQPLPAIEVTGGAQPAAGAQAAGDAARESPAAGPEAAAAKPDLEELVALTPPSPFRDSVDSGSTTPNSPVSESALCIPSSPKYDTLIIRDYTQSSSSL

Row | SMILES | EC50 [µM]
1 | O=c1c2ccc(C#Cc3ccccn3)cc2nc2n1CCC1(CO)CC21 (centres unmarked) [Example 2.103, 1a-(hydroxymethyl)-8-(pyridin-2-ylethynyl)-1,2,3,10b-tetrahydrocyclopropa[3,4]pyrido [2,1-b]quinazolin-5(1aH)-one] | 0.1 to 0.3
2 | O=c1c2ccc(C#Cc3ccccn3)cc2nc2n1C[C@H]1CCCN1C2 [Example 2.104, (R)-8-(pyridin-2-ylethynyl)-2,3,13,13a-tetrahydro-1H-pyrrolo[1′,7′:4,5]pyrazino[2,1-b]quinazolin-11(5H)-one] | 0.03 to 0.1
3 | O=c1c2ccc(C#Cc3ccccn3)cc2nc2n1CCN1CCC2C1 (centres unmarked) [Example 3.6, 9-(pyridin-2-ylethynyl)-1,2,5,6-tetrahydro-3,6-methano[1,4]diazocino[8,1-b]quinazolin-12(4H)-one] | 0.1 to 0.3
4 | O=c1c2ncc(C#Cc3ccccn3)cc2nc2n1CCCC(C(F)(F)F)C2 (centres unmarked) [Example 3.8, 3-(pyridin-2-ylethynyl)-7-(trifluoromethyl)-7,8,9,10-tetrahydropyrido[3′,2′:4,5]pyrimido [1,2-a]azepin-12(6H)-one] | 0.03 to 0.1
5 | O=c1c2ncc(C#Cc3ccccn3)cc2nc2n1CCC(F)(F)CC2 [Example 3.16, 8,8-difluoro-3-(pyridin-2-ylethynyl)-7,8,9,10-tetrahydropyrido[3′,2′:4,5]pyrimido [1,2-a]azepin-12(6H)-one] | 0.1 to 0.3
6 | CCC1(F)CCc2nc3cc(C#Cc4ccccn4)cnc3c(=O)n2CC1 (centres unmarked) [Example 3.18, 8-ethyl-8-fluoro-3-(pyridin-2-ylethynyl)-7,8,9,10-tetrahydropyrido[3′,2′:4,5]pyrimido [1,2-a]azepin-12(6H)-one] | 0.03 to 0.1
7 | CC1CCc2nc3cc(C#Cc4cc(C#N)ccn4)ccc3c(=O)n2CC1 (centres unmarked) [Example 3.19, 2-((8-methyl-12-oxo-6,7,8,9,10,12-hexahydroazepino[2,1-b]quinazolin-3-yl)ethynyl)isonicotinonitrile] | 0.03 to 0.1
8 | Cc1cc(C#Cc2ccccn2)cc2nc3n(c(=O)c12)CCC(C)CC3 (centres unmarked) [Example 3.22, 1,8-dimethyl-3-(pyridin-2-ylethynyl)-7,8,9,10-tetrahydroazepino[2,1-b]quinazolin-12(6H)-one] | 0.03 to 0.1
9 | COC1CCc2nc3cc(C#Cc4ccccn4)cnc3c(=O)n2CC1 (centres unmarked) [Example 3.23, 8-methoxy-3-(pyridin-2-ylethynyl)-7,8,9,10-tetrahydropyrido[3′,2′:4,5]pyrimido [1,2-a]azepin-19(6H)-one] | 0.1 to 0.3
10 | CC1(F)CCCc2nc3cc(C#Cc4ccccn4)cnc3c(=O)n2C1 (centres unmarked) [Example 3.25, 9-fluoro-9-methyl-3-(pyridin-2-ylethynyl)-7,8,9,10-tetrahydropyrido[3′,2′:4,5]pyrimido [1,2-a]azepin-12(6H)-one] | 0.1 to 0.3
11 | O=c1c2ncc(C#Cc3ccccn3)cc2nc2n1CC(F)(F)CCC2 [Example 3.26, 9,9-difluoro-3-(pyridin-2-ylethynyl)-7,8,9,10-tetrahydropyrido[3′,2′:4,5]pyrimido [1,2-a]azepin-12(6H)-one] | 0.03 to 0.1
12 | O=c1c2ccc(C#Cc3ccccn3)cc2nc2n1CC1CC(F)(F)CN1CC2 (centres unmarked) [Example 3.33a, 2,2-difluoro-9-(pyridin-2-ylethynyl)-2,3,5,6,14,14a-hexahydropyrrolo[2′,1′:3,4][1,4] diazepino[7,1-b]quinazolin-12(1H)-one] | 0.03 to 0.1
13 | CC12CCCN1CCc1nc3cc(C#Cc4ccccn4)ccc3c(=O)n1C2 (centres unmarked) [Example 3.34, 14a-methyl-9-(pyridin-2-ylethynyl)-2,3,5,6,14,14a-hexahydropyrrolo[2′,1′:3,4][1,4] diazepino[7,1-b]quinazolin-12(1H)-one] | 0.3 to 1
14 | CC1(C)C=Cc2nc3cc(C#Cc4ccccn4)ccc3c(=O)n2CC1 [Example 3.42, 8,8-dimethyl-3-(pyridin-2-ylethynyl)-9,10-dihydroazepino[2,1-b]quinazolin-12(8H)-one] | 0.03 to 0.1
15 | CC1(C)CCn2c(nc3cc(/C=C/c4cc(C#N)ccn4)ccc3c2=O)C1 [Example 4.1a, (E)-2-(2-(7,7-dimethyl-11-oxo-7,8,9,11-tetrahydro-6H-pyrido[2,1-b]quinazolin-3-yl)vinyl)isonicotinonitrile] | 0.3 to 1
16 | CC1(C)CCc2nc3cc(/C=C/c4cc(C#N)ccn4)ccc3c(=O)n2C1 [Example 4.1b, (E)-2-(2-(8,8-dimethyl-11-oxo-7,8,9,11-tetrahydro-6H-pyrido[2,1-b]quinazolin-3-yl)vinyl)isonicotinonitrile] | 0.3 to 1

Next, values leading:

Row | EC50 [µM] | SMILES
17 | 0.03 to 0.1 | CC1(C)CCn2c(nc3cc(C#Cc4ccccn4)c(F)cc3c2=O)C1 [Example 2.31a, 2-fluoro-7,7-dimethyl-3-(pyridin-2-ylethynyl)-8,9-dihydro-6H-pyrido[2,1-b]quinazolin-11(7H)-one]
18 | 0.01 to 0.03 | C=CC1(F)CCc2nc3cc(C#Cc4ccccn4)ccc3c(=O)n2C1 (centres unmarked) [Example 2.38, 8-fluoro-3-(pyridin-2-ylethynyl)-8-vinyl-8,9-dihydro-6H-pyrido[2,1-b]quinazolin-11(7H)-one]
19 | 0.01 to 0.03 | CC1(C)CCc2nc3cc(C#Cc4ccc(C#N)cn4)ccc3c(=O)n2C1 [Example 2.39, 6-((8,8-dimethyl-11-oxo-7,8,9,11-tetrahydro-6H-pyrido[2,1-b]quinazolin-3-yl)ethynyl)nicotinonitrile]
20 | 0.03 to 0.1 | COc1ccc(C#Cc2ccc3c(=O)n4c(nc3c2)CCC(C)(C)C4)nc1 [Example 2.40, 3-((5-methoxypyridin-2-yl)ethynyl)-8,8-dimethyl-8,9-dihydro-6H-pyrido[2,1-b]quinazolin-11(7H)-one]
21 | 0.01 to 0.03 | Cc1cc(C#Cc2ccc3c(=O)n4c(nc3c2)CCC(C)(C)C4)ccn1 [Example 2.46, 8,8-dimethyl-3-((2-methylpyridin-4-yl)ethynyl)-8,9-dihydro-6H-pyrido[2,1-d]quinazolin-11(7H)-one]
22 | < 0.01 | Cc1cnc(C#Cc2ccc3c(=O)n4c(nc3c2)CCC(C)(C)C4)s1 [Example 2.50, 8,8-dimethyl-3-((5-methylthiazol-2-yl)ethynyl)-8,9-dihydro-6H-pyrido[2,1-b]quinazolin-11(7H)-one]
23 | < 0.01 | Cc1cc(C#Cc2ccc3c(=O)n4c(nc3c2)CCC(C)(C)C4)sn1 [Example 2.51, 8,8-dimethyl-3-((3-methylisothiazol-5-yl)ethynyl)-8,9-dihydro-6H-pyrido[2,1-b]quinazolin-11(7H)-one]
24 | 0.03 to 0.1 | CC1(C)CCc2nc3cc(C#Cc4ncc(F)cn4)ccc3c(=O)n2C1 [Example 2.54, 3-((5-fluoropyrimidin-2-yl)ethynyl)-8,8-dimethyl-8,9-dihydro-6H-pyrido[2,1-b]quinazolin-11(7H)-one]
25 | 0.01 to 0.03 | CC1(C)CCc2nc3cc(C#Cc4ccccc4F)ccc3c(=O)n2C1 [Example 2.73, 3-((2-fluorophenyl)ethynyl)-8,8-dimethyl-8,9-dihydro-6H-pyrido[2,1-b]quinazolin-11(7H)-one]
26 | 0.01 to 0.03 | CC1(C)CCc2nc3cc(C#Cc4ccc(F)cc4)ccc3c(=O)n2C1 [Example 2.75, 3-((4-fluorophenyl)ethynyl)-8,8-dimethyl-8,9-dihydro-6H-pyrido[2,1-b]quinazolin-11(7H)-one]
27 | < 0.01 | CC1(C)CCc2nc3cc(C#Cc4ncccc4F)ccc3c(=O)n2C1 [Example 2.86, 3-((3-fluoropyridin-2-yl)ethynyl)-8,8-dimethyl-8,9-dihydro-6H-pyrido[2,1-b]quinazolin-11(7H)-one]
28 | < 0.01 | CC1(C)CCc2nc3cc(C#Cc4cccnc4F)ccc3c(=O)n2C1 [Example 2.87, 3-((2-fluoropyridin-3-yl)ethynyl)-8,8-dimethyl-8,9-dihydro-6H-pyrido[2,1-b]quinazolin-11(7H)-one]
29 | < 0.01 | CC1(C)CCc2nc3cc(C#Cc4ccc(F)nc4)ccc3c(=O)n2C1 [Example 2.88, 3-((6-fluoropyridin-3-yl)ethynyl)-8,8-dimethyl-8,9-dihydro-6H-pyrido[2,1-b]quinazolin-11(7H)-one]
30 | < 0.01 | CC1(C)CCc2nc3cc(C#Cc4cncc(F)c4)ccc3c(=O)n2C1 [Example 2.89, 3-((5-fluoropyridin-3-yl)ethynyl)-8,8-dimethyl-8,9-dihydro-6H-pyrido[2,1-b]quinazolin-11(7H)-one]
31 | < 0.01 | CC1(C)CCc2nc3cc(C#Cc4cnccc4F)ccc3c(=O)n2C1 [Example 2.90, 3-((4-fluoropyridin-3-yl)ethynyl)-8,8-dimethyl-8,9-dihydro-6H-pyrido[2,1-b]quinazolin-11(7H)-one]
32 | < 0.01 | CC1(C)CCc2nc3cc(C#Cc4ccncc4F)ccc3c(=O)n2C1 [Example 2.91, 3-((3-fluoropyridin-4-yl)ethynyl)-8,8-dimethyl-8,9-dihydro-6H-pyrido[2,1-b]quinazolin-11(7H)-one]
33 | < 0.01 | CC1(C)CCc2nc3cc(C#Cc4ccnc(F)c4)ccc3c(=O)n2C1 [Example 2.92, 3-((2-fluoropyridin-4-yl)ethynyl)-8,8-dimethyl-8,9-dihydro-6H-pyrido[2,1-b]quinazolin-11(7H)-one]
34 | 0.03 to 0.1 | CC1(CO)CCc2nc3cc(C#Cc4ccccn4)ccc3c(=O)n2C1 (centres unmarked) [Example 2.99, 8-(hydroxymethyl)-8-methyl-3-(pyridin-2-ylethynyl)-8,9-dihydro-6H-pyrido[2,1-b]quinazolin-11(7H)-one]
35 | 0.01 to 0.03 | N#Cc1ccnc(C#Cc2ccc3c(=O)n4c(nc3c2)CCCCC4)c1 [Example 3.5, 2-((12-oxo-6,7,8,9,10,12-hexahydroazepino[2,1-b]quinazolin-3-yl)ethynyl)isonicotinonitrile]
36 | 0.01 to 0.03 | CCC1(F)CCc2nc3cc(C#Cc4ccccn4)ccc3c(=O)n2CC1 (centres unmarked) [Example 3.17, 8-ethyl-8-fluoro-3-(pyridin-2-ylethynyl)-7,8,9,10-tetrahydroazepino[2,1-b]quinazolin-12(6H)-one]
37 | 0.01 to 0.03 | O=c1c2ccc(C#Cc3ccccn3)cc2nc2n1CC1(CCC2)COC1 [Example 3.38, 3-(pyridin-2-ylethynyl)-7,8-dihydro-6H-spiro[azepino[2,1-b]quinazoline-9,3′-oxetan]-12(10H)-one]
38 | 0.01 to 0.03 | Cc1csc(/C=C/c2ccc3c(=O)n4c(nc3c2)CCC(C)(C)C4)n1 [Example 4.3, (E)-8,8-dimethyl-3-(2-(4-methylthiazol-2-yl)vinyl)-8,9-dihydro-6H-pyrido[2,1-b]quinazolin-11(7H)-one]
